Measured values published in US11208446B2, “Agents and methods for treating CBP-dependent cancers” (priority 2016, dated 2021).

Key:
MOLM13 cells = assay: Giemsa staining of cells for morphology; format: cell-based, human; conditions: 20 μM, 6 hours
Experimental: Giemsa staining of cells for Morphology. MOLM13 cells were resupended to a concentration of 1×10^6 cells in 1 milliliter of PBS. Using the benchtop Cytospin Centrifuge instrument (ThermoFisher Scientific), 200 uL of the cell suspension was applied white clipped Cytofunnels (ThermoFisher Scientific) to glass microscope slides (2×10^5 cells/slide). Dip Quick Stain (J-322, Jorgensen Laboratories, Inc) was used for per manufacturer's protocol for the polychromic stain of cells.

[1] = system: MYC and BCL2 mRNA expression; assay: RT-qPCR of BCL2 and MYC mRNA normalized to GAPDH; format: cell-based; conditions: human AML cell lines
Experimental: Quantitative RT-PCR. RNA was isolated using Trizol reagent according to the manufacturer's instructions (Life Technologies). Complementary DNA was synthesized using the SuperScript III First-Strand Synthesis system according to the manufacturer's instructions (Invitrogen). Quantitative real-time PCR was performed using the KAPA SYBR FAST PCR polymerase with 20 ng template and 200 nM primers, according to the manufacturer's instructions (Kapa Biosystems, Wilmington, Mass., USA). PCR primers are listed below. Ct values were calculated using ROX normalization using the ViiA 7 software (Applied Biosystems).

MYB:CBP complex = target: T1, MYB:CBP complex (Homo sapiens, UniProt Q92793); assay: Dissociation of MYB:CBP complex in AML cells (co-immunoprecipitation); format: cell-based
T1 construct: endogenous in cells; host or cells: MV411 human AML cells
T1 sequence (Q92793 2-2442 limits assumed, one chain of several): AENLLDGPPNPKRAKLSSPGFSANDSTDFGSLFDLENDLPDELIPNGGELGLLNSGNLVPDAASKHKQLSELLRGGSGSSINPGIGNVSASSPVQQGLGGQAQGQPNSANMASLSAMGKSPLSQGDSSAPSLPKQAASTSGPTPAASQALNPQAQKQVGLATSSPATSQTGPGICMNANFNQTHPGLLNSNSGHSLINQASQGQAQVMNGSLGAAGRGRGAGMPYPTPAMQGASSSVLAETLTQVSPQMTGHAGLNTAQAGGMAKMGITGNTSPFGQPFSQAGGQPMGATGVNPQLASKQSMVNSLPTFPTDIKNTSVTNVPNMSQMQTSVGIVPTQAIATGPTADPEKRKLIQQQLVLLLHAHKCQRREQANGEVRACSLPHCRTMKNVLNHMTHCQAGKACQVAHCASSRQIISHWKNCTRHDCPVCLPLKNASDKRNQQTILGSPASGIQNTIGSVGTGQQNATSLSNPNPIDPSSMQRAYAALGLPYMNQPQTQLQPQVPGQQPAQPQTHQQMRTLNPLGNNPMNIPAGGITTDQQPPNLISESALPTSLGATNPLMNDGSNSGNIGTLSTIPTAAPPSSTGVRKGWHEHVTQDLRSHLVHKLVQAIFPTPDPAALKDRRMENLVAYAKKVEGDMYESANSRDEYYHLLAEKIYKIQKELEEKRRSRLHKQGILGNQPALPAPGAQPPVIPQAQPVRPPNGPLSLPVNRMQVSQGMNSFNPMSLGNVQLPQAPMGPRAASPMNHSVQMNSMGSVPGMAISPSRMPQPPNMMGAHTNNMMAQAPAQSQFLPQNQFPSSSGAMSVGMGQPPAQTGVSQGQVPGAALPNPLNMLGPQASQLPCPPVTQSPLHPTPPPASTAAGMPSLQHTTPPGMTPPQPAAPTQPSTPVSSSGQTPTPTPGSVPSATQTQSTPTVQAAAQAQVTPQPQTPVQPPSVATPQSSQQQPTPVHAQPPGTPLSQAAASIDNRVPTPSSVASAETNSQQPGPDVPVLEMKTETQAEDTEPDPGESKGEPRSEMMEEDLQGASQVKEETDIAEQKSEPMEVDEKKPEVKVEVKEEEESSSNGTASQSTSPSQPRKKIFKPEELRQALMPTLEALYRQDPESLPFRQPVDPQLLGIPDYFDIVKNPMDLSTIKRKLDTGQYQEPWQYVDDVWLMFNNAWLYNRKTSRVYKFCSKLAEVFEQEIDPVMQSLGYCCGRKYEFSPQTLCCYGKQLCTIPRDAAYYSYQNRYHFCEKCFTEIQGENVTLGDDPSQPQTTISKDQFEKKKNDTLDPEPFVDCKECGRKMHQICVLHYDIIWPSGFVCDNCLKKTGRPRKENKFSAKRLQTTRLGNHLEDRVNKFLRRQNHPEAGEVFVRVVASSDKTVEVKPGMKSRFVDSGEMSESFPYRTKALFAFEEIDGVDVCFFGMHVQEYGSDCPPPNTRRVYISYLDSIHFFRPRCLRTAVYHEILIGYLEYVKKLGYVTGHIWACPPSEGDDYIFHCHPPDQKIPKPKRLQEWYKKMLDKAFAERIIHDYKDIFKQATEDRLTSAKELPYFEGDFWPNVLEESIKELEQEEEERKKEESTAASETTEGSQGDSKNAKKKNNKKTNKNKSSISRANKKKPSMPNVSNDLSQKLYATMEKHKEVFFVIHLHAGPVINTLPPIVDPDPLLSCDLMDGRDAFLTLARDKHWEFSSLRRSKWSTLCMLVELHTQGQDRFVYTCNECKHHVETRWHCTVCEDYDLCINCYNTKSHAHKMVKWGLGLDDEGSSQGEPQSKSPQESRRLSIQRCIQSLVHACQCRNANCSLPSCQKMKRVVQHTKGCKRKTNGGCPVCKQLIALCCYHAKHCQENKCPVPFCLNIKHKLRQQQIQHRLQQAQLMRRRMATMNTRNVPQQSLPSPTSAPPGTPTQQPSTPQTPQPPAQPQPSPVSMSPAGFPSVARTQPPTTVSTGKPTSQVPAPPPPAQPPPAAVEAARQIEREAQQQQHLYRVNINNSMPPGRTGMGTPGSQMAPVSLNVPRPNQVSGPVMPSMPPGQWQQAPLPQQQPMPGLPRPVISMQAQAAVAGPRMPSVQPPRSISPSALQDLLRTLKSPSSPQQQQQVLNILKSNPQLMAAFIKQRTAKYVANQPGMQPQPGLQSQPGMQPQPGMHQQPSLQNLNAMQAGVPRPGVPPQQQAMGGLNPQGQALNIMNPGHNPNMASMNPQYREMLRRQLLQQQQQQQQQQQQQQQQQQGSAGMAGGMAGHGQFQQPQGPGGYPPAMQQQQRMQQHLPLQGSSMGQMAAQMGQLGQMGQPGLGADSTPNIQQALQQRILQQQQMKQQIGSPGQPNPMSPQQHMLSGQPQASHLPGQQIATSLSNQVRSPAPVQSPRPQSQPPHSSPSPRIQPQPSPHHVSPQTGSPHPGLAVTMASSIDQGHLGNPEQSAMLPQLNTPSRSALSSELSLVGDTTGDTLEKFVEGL
Experimental: Co-immunoprecipitation analysis. 7.5 μg of indicated antibodies were conjugated to 1 mg M-270 Epoxy-coated magnetic beads (Invitrogen) according to manufacturer's instructions. 1×10^7 MV411 cells were collected and washed in cold PBS. Washed cell pellets were resuspended in 350 μL cold lysis buffer (50 mM Tris-HCl pH 7.4, 150 mM NaCl, 1 mM EDTA, 1 mM DTT, 0.5% Triton X-100, supplemented with protease inhibitors described above) and incubated on ice for 10 min. Cells were mechanically disrupted using the Covaris […] adaptive focused sonicator at 50 W peak power, 10% duty cycle, 200 cycles per burst at 4° C. for 300 sec. Lysate was clarified by centrifugation for 15 min at 18,000×g at 4° C. Supernatant (cleared lysate) was diluted in 1.05 mL dilution buffer (50 mM Tris-HCl, 150 mM NaCl, 1 mM EDTA, 1 mM DTT, 10% glycerol, supplemented with protease inhibitors described above for a total volume of 1.4 mL. Diluted lysate was added to 1 mg beads, and immunoprecipitation proceeded for 3 h at 4° C. with rotation. Beads were then washed with lysis buffer twice. Proteins were eluted in 20 μL EB buffer (Invitrogen) for 5 min at room temperature, and eluate was neutralized with 2 μL 1M Tris pH 11. Samples were prepared for Western blot by addition of Laemmli buffer with 50 mM DTT and incubation at 95° C. for 5 min. Presence of MYB and CBP was identified by Western blot as described above.

SMILES: CC[C@@H](C)[C@@H](NC(=O)[C@@H](CCCCN)NC(=O)[C@@H](CCC(=O)O)NC(=O)[C@@H](CC(C)C)NC(=O)[C@@H](CCC(=O)O)NC(=O)[C@@H](CC(C)C)NC(=O)[C@@H](CC(C)C)NC(=O)[C@@H](CC(C)C)NC(=O)[C@@H](CCSC)NC(=O)[C@@H](CO)NC(=O)[C@H](NC(=O)[C@@H](CCC(=O)O)NC(=O)[C@@H](CC(N)=O)NC(=O)[C@@H](CCC(=O)O)NC(=O)[C@@H](CC(C)C)NC(=O)[C@@H](CCCCN)NC(C)=O)[C@H](C)O)C(=O)N[C@H](CCCNC(=N)N)C(=O)N[C@H](CCCCN)C(=O)NCC(=O)NCC(=O)N[C@H](CCCNC(=N)N)C(=O)N[C@H](CCCNC(=N)N)C(=O)N[C@H](CCCNC(=N)N)C(=O)N[C@H](CCC(N)=O)C(=O)N[C@H](CCCNC(=N)N)C(=O)N[C@H](CCCNC(=N)N)C(=O)N[C@H](CCCCN)C(=O)N[C@H](CCCCN)C(=O)N[C@H](CCCNC(=N)N)C(=O)NCC(=O)N[C@H](Cc1ccc(O)cc1)C(N)=O [MYBMIM]
- cell morphology (MOLM13 cells): induces cell death without morphologic evidence of differentiation
- MYC and BCL2 mRNA expression as a percentage of GAPDH [1]: downregulation
- MYB:CBP complex in cells (MYB:CBP complex): displacement and dissociation of MYB:CBP complex
